Experimental data: patent publication US20230063059A1, “SUBSTANCE INTERACTING WITH C TERMINAL FRAGMENT OF THE STIM1 FRACTION LOCALIZED TO THE PLASMA MEMBRANE OF THE CELLS, FOR ITS USE IN THE TREATMENT OF CANCERS, AND IN SCREENING AND DIAGNOSTIC METHODS” (UNIVERSITÉ DE BRETAGNE OCCIDENTALE - UBO, priority 2019, published 2023)

How the values were obtained:
Type in all cases: cell-based
Conditions in all cases: Gemcitabine alone, low dose 15 nM, 48 hours
[1] = tested on: Panc-1-Wt pancreatic cancer cells; experiment: Cell survival, CCK8 kit
Procedure: (§1) For cell proliferation, cytotoxicity, and cell survival measurements, […] were seeded in 96 wells plates in 100 μL of DMEM medium. Cells were incubated for 48H hours at 37° C. with an anti-STIM1 antibody targeting the C terminal of STIM1 (CDN3H4, Santa Cruz; HPA011088 or HPA012123 clones, Sigma). Cell proliferation was evaluated using the Cell Titer kit proliferation assay (Promega). Cytotoxicity was evaluated using the Cell Tox green cytotoxicity assay (Promega) and cell survival measured using the CCK8 kit from Sigma. All these kits were used following manufacturer recommendations and using a plate reader
as §1, with “with 5 μg/ml of the” for “with an”, “Santa Cruz) alone, with 15 nM Gemcitabine alone” for “Santa Cruz; HPA011088”, “or with both 5 ug/ml of the anti-STIM1 clone CDN3H4 and 15 nM Gemcitabine. Relevant controls (isotype or/and DMSO treatments) were also realized.” for “or HPA012123 clones, Sigma).”

[2] = tested on: Panc-1-Wt pancreatic cancer cells; experiment: Cell proliferation, Cell Titer kit proliferation assay
Procedure: as §1
as §1, with “with 5 μg/ml of the” for “with an”, “Santa Cruz) alone, with 15 nM Gemcitabine alone” for “Santa Cruz; HPA011088”, “or with both 5 ug/ml of the anti-STIM1 clone CDN3H4 and 15 nM Gemcitabine. Relevant controls (isotype or/and DMSO treatments) were also realized.” for “or HPA012123 clones, Sigma).”

[3] = tested on: Panc-1-Wt pancreatic cancer cells; experiment: Cytotoxicity, Cell Tox green cytotoxicity assay
Procedure: as §1
as §1, with “with 5 μg/ml of the” for “with an”, “Santa Cruz) alone, with 15 nM Gemcitabine alone” for “Santa Cruz; HPA011088”, “or with both 5 ug/ml of the anti-STIM1 clone CDN3H4 and 15 nM Gemcitabine. Relevant controls (isotype or/and DMSO treatments) were also realized.” for “or HPA012123 clones, Sigma).”

Nc1ccn([C@@H]2O[C@H](CO)[C@@H](O)C2(F)F)c(=O)n1 [Gemcitabine]
survival of pancreatic cancer cells [1]: slightly but significantly reduce
proliferation of pancreatic cancer cells [2]: slightly but significantly reduce
cell cytotoxicity [3]: without inducing cell cytotoxicity
